*1 amine or outer side, *2 acyl side, *3 side chain or, on linkers, in order; H or OH if unused. Where a SMILES comes first, the peptide text is derived from it. Bridges are numbered along the chain shown (N, C = ends). Roman numbers before positions name the chains, in order. [ ]: non-standard residue; d: D form. The star is where a group is joined. ξ: configuration not given here. TATA = O=C(CC[*:1])N1CN(C(=O)CC[*:2])CN(C(=O)CC[*:3])C1; Dolaproine = CO[C@@H]([C@@H]1CCCN1)[C@@H](C)C(=O)O; X1 = CC[C@H](C)C(C(CC(=O)[*:2])OC)N(C)[*:1]; 1Nal = N[C@@H](Cc1cccc2ccccc12)C(=O)O; X3 = O=C(CCCC(=O)[*:2])NCCC(=O)[*:1]; PABC = O=C(OCc1ccc(N[*:1])cc1)[*:2]; Hyp = O=C(O)[C@@H]1C[C@@H](O)CN1; hArg = N=C(N)NCCCC[C@H](N)C(=O)O; Cit = NC(=O)NCCC[C@H](N)C(=O)O; X2 = CC(N*)[C@@H](O)c1ccccc1; ξNMeV = CNC(C(=O)O)C(C)C; ξV = CC(C)C(N)C(=O)O; Sar = CNCC(=O)O
Key:
[1] = test system: MDA-MB-468 xenograft; experiment: Example 4: in vivo efficacy in MDA-MB-468 xenograft (breast cancer model) in Balb/c nude mice; design: species or system Mus Musculus
[2] = test system: HT-1376 xenograft; experiment: Example 2: in vivo efficacy in HT-1376 xenograft (bladder cancer model) in CB17-SCID mice
Description: The major endpoint was to see if the tumor growth could be delayed or mice could be cured. Tumor volume was measured three times weekly in two dimensions using a caliper, and the volume was expressed in mm^3 using the formula: V=0.5 a×b^2 where a and b are the long and short diameters of the tumor, respectively. The tumor size was then used for calculations of T/C value. The T/C value (in percent) is an indication of antitumor effectiveness; T and C are the mean volumes of the treated and control groups, respectively, on a given day. TGI was calculated for each group using the formula: TGI (%)=[1−(Ti−T0)/(Vi−V0)]×100; Ti is the average tumor volume of a treatment group on a given day, T0 is the average tumor volume of the treatment group on the day of treatment start, Vi is the average tumor volume of the vehicle control group on the same day with Ti, and V0 is the average tumor volume of the vehicle group on the day of treatment start.
A one-way ANOVA was performed to compare tumor volume among groups, and when a significant F-statistics (a ratio of treatment variance to the error variance) was obtained, comparisons between groups were carried out with Games-Howell test. […] P<0.05 was considered to be statistically significant.
• Species: Mus Musculus • Strain: CB17-SCID • Age: 6-8 weeks • Sex: female • Body weight: 18-22 g • Number of animals: 21-41 mice plus spare • Animal supplier: Shanghai LC Laboratory Animal Co., LTD.
The HT-1376 tumor cells were maintained in vitro as a monolayer culture in EMEM medium supplemented with 10% heat inactivated fetal bovine serum at 37° C. in an atmosphere of 5% CO2 in air. The tumor cells were routinely subcultured twice weekly by trypsin-EDTA treatment.
Each mouse was inoculated subcutaneously at the right flank with HT-1376 tumor cells (5×10^6) in 0.2 ml of PBS with matrigel (1:1) for tumor development. Animals were randomized when the average tumor volume reached 153-164 mm^3.
Tumor growth inhibition rate for Test articles in the HT-1376 xenograft model was calculated based on tumor volume measurements at day 21 after the start of treatment.

[3] = 3 mg/kg biw, day 21, groups 8-17
[4] = 3 mg/kg qw, day 21, groups 8-17
[5] = 5 mg/kg qw, day 21, groups 8-17

Compound: CC[C@H](C)C(C(CC(=O)N1CCC[C@H]1[C@H](OC)[C@@H](C)C(=O)NC(C)[C@@H](O)c1ccccc1)OC)N(C)C(=O)[C@@H](NC(=O)C(C(C)C)N(C)C(=O)OCc1ccc(NC(=O)[C@H](CCCNC(N)=O)NC(=O)C(NC(=O)CCCC(=O)NCCC(=O)N(C)CC(=O)N(C)CC(=O)N(C)CC(=O)N(C)CC(=O)N(C)CC(=O)N(C)CC(=O)N(C)CC(=O)N(C)CC(=O)N(C)CC(=O)N(C)CC(=O)N[C@H]2CSCCC(=O)N3CN4CN(C3)C(=O)CCSC[C@H](NC(=O)[C@@H](CC(=O)O)NC(=O)[C@H](Cc3cccc5ccccc35)NC(=O)[C@@H]3CCCN3C2=O)C(=O)N[C@@H](CCSC)C(=O)N[C@@H](CCCCNC(=N)N)C(=O)N[C@@H](CC(=O)O)C(=O)N[C@@H](Cc2c[nH]c3ccccc23)C(=O)N[C@@H](CO)C(=O)N[C@@H]([C@@H](C)O)C(=O)N2CCC[C@H]2C(=O)N2C[C@H](O)C[C@H]2C(=O)N[C@@H](Cc2c[nH]c3ccccc23)C(=O)N[C@H](C(N)=O)CSCCC4=O)C(C)C)cc1)C(C)C (stereo partly drawn) [BCY8245, MMAE-PABC-Cit-Val-Glutaryl-BCY8234] (I: [Sar][Sar][Sar][Sar][Sar][Sar][Sar][Sar][Sar][Sar]CP[1Nal][dD]CM[hArg]DWSTP[Hyp]WC-NH2 / II: [ξV][Cit][PABC][ξNMeV]V[X1][Dolaproine]-X2; linker I:11-I:15-I:25 via TATA; linker I:N-II:N via X3)
- Tumor volume ([1]; 5 mpk, qw, dosing suspended from day 21, day 25): 48 ± 5 mm^3
- Tumor volume ([1]; 5 mpk, qw, dosing suspended from day 21, day 28): 37 ± 7 mm^3
- Tumor volume ([1]; 5 mpk, qw, dosing suspended from day 21, day 32): 28 ± 6 mm^3
- Tumor volume ([1]; 5 mpk, qw, dosing suspended from day 21, day 35): 24 ± 4 mm^3
- Tumor volume ([1]; 5 mpk, qw, dosing suspended from day 21, day 39): 28 ± 6 mm^3
- Tumor volume ([1]; 5 mpk, qw, dosing suspended from day 21, day 42): 26 ± 6 mm^3
- Tumor volume ([1]; 5 mpk, qw, iv, day 0 after start of treatment): 199 ± 28 mm^3
- Tumor volume ([1]; 5 mpk, qw, iv, day 2): 193 ± 11 mm^3
- Tumor volume ([1]; 5 mpk, qw, iv, day 4): 135 ± 4 mm^3
- Tumor volume ([1]; 5 mpk, qw, iv, day 7): 98 ± 5 mm^3
- Tumor volume ([1]; 5 mpk, qw, iv, day 9): 58 ± 5 mm^3
- Tumor volume ([1]; 5 mpk, qw, iv, day 11): 49 ± 5 mm^3
- Tumor volume ([1]; 5 mpk, qw, iv, day 14): 47 ± 2 mm^3
- Tumor volume ([1]; 5 mpk, qw, iv, day 16): 37 ± 4 mm^3
- Tumor volume ([1]; 5 mpk, qw, iv, day 18): 35 ± 3 mm^3
- Tumor volume ([1]; 5 mpk, qw, iv, day 21): 29 ± 3 mm^3
- T/C ([1]; 5 mpk, qw, day 21): 6.6%
- TGI ([1]; 5 mpk, qw, day 21): 168.4%
- Tumor volume ([1]; 5 mpk, qw, day 21, Mean ± SEM (Table 22)): 29 ± 3 mm^3
- anti-tumour activity (in words) ([1]; mouse, in vivo): good anti-tumour activity
- antitumor activity (in words) ([2]; 1 mg/kg): slight antitumor activity
- TGI [2, 3]: 72.3%
- Tumor volume (TV) [2, 3]: 407 mm^3
- TGI [2, 4]: 50.9%
- Tumor volume (TV) [2, 4]: 603 mm^3
- TGI [2, 5]: 66.0%
- Tumor volume (TV) [2, 5]: 465 mm^3
- Tumor volume ([2]; 1/3 mpk, qw, iv (1 mg/kg first week, 3 mg/kg following 2 weeks), day 0 after start of treatment (Table 14)): 164 ± 16 mm^3
- Tumor volume ([2]; 1/3 mpk, qw, iv (1 mg/kg first week, 3 mg/kg following 2 weeks), day 2 (Table 14)): 184 ± 12 mm^3
- Tumor volume ([2]; 1/3 mpk, qw, iv (1 mg/kg first week, 3 mg/kg following 2 weeks), day 4 (Table 14)): 206 ± 14 mm^3
- Tumor volume ([2]; 1/3 mpk, qw, iv (1 mg/kg first week, 3 mg/kg following 2 weeks), day 7 (Table 14)): 265 ± 21 mm^3
- Tumor volume ([2]; 1/3 mpk, qw, iv (1 mg/kg first week, 3 mg/kg following 2 weeks), day 9 (Table 14)): 291 ± 10 mm^3
- Tumor volume ([2]; 1/3 mpk, qw, iv (1 mg/kg first week, 3 mg/kg following 2 weeks), day 11 (Table 14)): 281 ± 28 mm^3
- Tumor volume ([2]; 1/3 mpk, qw, iv (1 mg/kg first week, 3 mg/kg following 2 weeks), day 14 (Table 14)): 335 ± 16 mm^3
- Tumor volume ([2]; 1/3 mpk, qw, iv (1 mg/kg first week, 3 mg/kg following 2 weeks), day 16 (Table 14)): 354 ± 11 mm^3
- Tumor volume ([2]; 1/3 mpk, qw, iv (1 mg/kg first week, 3 mg/kg following 2 weeks), day 18 (Table 14)): 309 ± 19 mm^3
- Tumor volume ([2]; 1/3 mpk, qw, iv (1 mg/kg first week, 3 mg/kg following 2 weeks), day 21 (Table 14)): 347 ± 14 mm^3
- T/C ([2]; 3 mpk, biw (Table 17)): 38.1%
- TGI ([2]; 3 mpk, biw (Table 17)): 72.3%
- Tumor volume ([2]; 3 mpk, biw, iv, day 0 after start of treatment (Table 15)): 154 ± 30 mm^3
- Tumor volume ([2]; 3 mpk, biw, iv, day 2 (Table 15)): 248 ± 58 mm^3
- Tumor volume ([2]; 3 mpk, biw, iv, day 5 (Table 15)): 203 ± 15 mm^3
- Tumor volume ([2]; 3 mpk, biw, iv, day 7 (Table 15)): 273 ± 45 mm^3
- Tumor volume ([2]; 3 mpk, biw, iv, day 9 (Table 15)): 356 ± 50 mm^3
- Tumor volume ([2]; 3 mpk, biw, iv, day 12 (Table 15)): 391 ± 53 mm^3
- Tumor volume ([2]; 3 mpk, biw, iv, day 14 (Table 15)): 407 ± 53 mm^3
- Tumor volume ([2]; 3 mpk, biw, day 14 values of Table 15, Mean ± SEM (Table 17)): 407 ± 53 mm^3
- T/C ([2]; 3 mpk, qw (Table 17)): 56.4%
- TGI ([2]; 3 mpk, qw (Table 17)): 50.9%
- Tumor volume ([2]; 3 mpk, qw, iv, day 0 after start of treatment (Table 15, groups 8-17)): 153 ± 26 mm^3
- Tumor volume ([2]; 3 mpk, qw, iv, day 2 (Table 15)): 254 ± 53 mm^3
- Tumor volume ([2]; 3 mpk, qw, iv, day 5 (Table 15)): 298 ± 69 mm^3
- Tumor volume ([2]; 3 mpk, qw, iv, day 7 (Table 15)): 398 ± 61 mm^3
- Tumor volume ([2]; 3 mpk, qw, iv, day 9 (Table 15)): 468 ± 73 mm^3
- Tumor volume ([2]; 3 mpk, qw, iv, day 12 (Table 15)): 502 ± 67 mm^3
- Tumor volume ([2]; 3 mpk, qw, iv, day 14 (Table 15)): 603 ± 76 mm^3
- Tumor volume ([2]; 3 mpk, qw, day 14 values of Table 15, Mean ± SEM (Table 17)): 603 ± 76 mm^3
- T/C ([2]; 3 mpk, qw, day 21 (Table 16)): 39.2%
- TGI ([2]; 3 mpk, qw, day 21 (Table 16)): 74.5%
- Tumor volume ([2]; 3 mpk, qw, day 21, Mean ± SEM (Table 16)): 347 ± 14 mm^3
- T/C ([2]; 5 mpk, qw (Table 17)): 43.5%
- TGI ([2]; 5 mpk, qw (Table 17)): 66.0%
- Tumor volume ([2]; 5 mpk, qw, iv, day 0 after start of treatment (Table 15)): 153 ± 15 mm^3
- Tumor volume ([2]; 5 mpk, qw, iv, day 2 (Table 15)): 237 ± 41 mm^3
- Tumor volume ([2]; 5 mpk, qw, iv, day 5 (Table 15)): 228 ± 36 mm^3
- Tumor volume ([2]; 5 mpk, qw, iv, day 7 (Table 15)): 317 ± 31 mm^3
- Tumor volume ([2]; 5 mpk, qw, iv, day 9 (Table 15)): 394 ± 20 mm^3
- Tumor volume ([2]; 5 mpk, qw, iv, day 12 (Table 15)): 438 ± 31 mm^3
- Tumor volume ([2]; 5 mpk, qw, iv, day 14 (Table 15)): 465 ± 33 mm^3
- Tumor volume ([2]; 5 mpk, qw, day 14 values of Table 15, Mean ± SEM (Table 17)): 465 ± 33 mm^3
- efficacy (in words) ([2]; after increasing dosage to 3 mg/kg from day 7): better efficacy
- anti-tumour activity (in words) ([2]; mouse, in vivo): good anti-tumour activity
